In brackets after ≈: the same amount, converted by molar mass. Activity calls are given as the source filed them. The calls are words filed in the database; no cut-off is given here.
How the values were obtained:
[1] = tested on: Mycobacterium tuberculosis; assay: Antimycobacterial activity against Mycobacterium tuberculosis H37Rv incubated at 37 degC for 4 weeks; assay type: functional; conditions: 672 h
[2] = Cytotoxicity against African green monkey Vero C1008 cells assessed as reduction in cell viability after 24 hrs by MTS assay; assay type: cell-based; conditions: Chlorocebus sabaeus
[3] = Selectivity index, ratio of IC50 for African green monkey Vero C1008 cells to MIC for Mycobacterium tuberculosis H37Rv; assay type: toxicity, cell-based; conditions: read-out: Selectivity Index
[4] = tested on: Mycobacterium tuberculosis; assay: Bactericidal activity against Mycobacterium tuberculosis H37Rv infected in Swiss mouse assessed as microbial killing by measuring colony forming units at 100 mg/kg, po dosed daily for 28 days (reference value: 4800 CFU); assay type: functional
[5] = Bioavailability in rat by HPLC and LC-MS/MS method; assay type: ADME, organism-based; conditions: in vivo
[6] = tested on: Mycobacterium tuberculosis; assay: Antimycobacterial activity against Mycobacterium tuberculosis H37Rv infected in human blood monocyte derived macrophages assessed as reduction in intracellular colony forming units at 4 times antimycobacterial MIC measured during 3 hrs infection period; assay type: functional, organism-based
[7] = tested on: Mycobacterium tuberculosis; assay: Antimycobacterial activity against drug-sensitive Mycobacterium tuberculosis H37Rv by agar dilution method; assay type: functional
[8] = tested on: Mycobacterium tuberculosis; assay: Bactericidal activity against Mycobacterium tuberculosis H37Rv assessed as microbial killing at 1 times and 4 times MIC level measured on day 14; assay type: functional
[9] = tested on: Mycobacterium tuberculosis; assay: Bactericidal activity against Mycobacterium tuberculosis H37Rv infected in Swiss mouse assessed as microbial killing at 100 mg/kg, po dosed daily for 28 days; assay type: functional; conditions: 672 h
[10] = tested on: Mycobacterium tuberculosis; assay: Antimycobacterial activity against Mycobacterium tuberculosis H37Rv infected in Swiss mouse assessed as lung bacterial colony forming units at 100 mg/kg, po dosed daily for 28 days measured up to day 40 (reference value: 31 10^7 CFU); assay type: functional
[11] = tested on: Mycobacterium tuberculosis; assay: Antimycobacterial activity against Mycobacterium tuberculosis H37Rv infected in Swiss mouse assessed as reduction in lung bacterial lesions at 100 mg/kg, po dosed daily for 28 days measured up to day 40 by Ziehl-Neelsen staining method; assay type: functional, organism-based; design: dose 100 mg/kg
[12] = tested on: Mycobacterium tuberculosis; assay: Antimycobacterial activity against Mycobacterium tuberculosis H37Rv infected in human blood monocyte derived macrophages assessed as reduction in intracellular colony forming units at 4 times antimycobacterial MIC measured during 3 hrs infection period relative to control; assay type: functional
[13] = tested on: Mycobacterium tuberculosis; assay: Antimycobacterial activity against Mycobacterium tuberculosis H37Rv infected in Swiss mouse assessed as reduction in lung bacterial colony forming units at 100 mg/kg, po dosed daily for 28 days measured up to day 40; assay type: functional
[14] = Mean residence time in rat by HPLC and LC-MS/MS method; assay type: ADME, organism-based; conditions: in vivo
[15] = tested on: Mycobacterium tuberculosis; assay: Antimycobacterial activity against Mycobacterium tuberculosis H37Rv infected in mouse bone-marrow derived macrophages assessed as reduction in intracellular colony forming units at 4 times antimycobacterial MIC measured during 3 hrs infection period; assay type: functional
[16] = tested on: Mycobacterium tuberculosis; assay: Antimycobacterial activity against Mycobacterium tuberculosis H37Rv infected in mouse bone-marrow derived macrophages assessed as reduction in intracellular colony forming units at 4 times antimycobacterial MIC measured during 3 hrs infection period relative to control; assay type: functional
[17] = tested on: Mycobacterium tuberculosis; assay: Antimycobacterial activity against Mycobacterium tuberculosis H37Rv infected in Swiss mouse assessed as mouse survival level at 100 mg/kg, po dosed daily for 28 days measured up to day 40; assay type: functional
[18] = Elimination half life in rat by HPLC and LC-MS/MS method; assay type: ADME, organism-based; conditions: in vivo, read-out: beta t1/2 (converted)
[19] = tested on: Mycobacterium tuberculosis; assay: Bactericidal activity against Mycobacterium tuberculosis H37Rv assessed as microbial killing by measuring colony forming units at 1 times and 4 times MIC level measured on day 14 (reference value: 1680 CFU); assay type: functional
[20] = tested on: Mycobacterium tuberculosis; assay: Antimycobacterial activity against Mycobacterium tuberculosis H37Rv infected in Swiss mouse assessed as median survival time at 100 mg/kg, po dosed daily for 28 days measured up to day 40; assay type: functional
[21] = Protein binding in rat plasma by HPLC and LC-MS/MS method; assay type: ADME, cell-free; conditions: read-out: PPB (converted)
[22] = tested on: Mycobacterium tuberculosis; assay: Antimycobacterial activity against Mycobacterium tuberculosis H37Rv infected in Swiss mouse assessed as lung bacterial colony forming units at 10 mg/kg, po dosed daily for 28 days measured up to day 40 (reference value: 31 10^7 CFU); assay type: functional
[23] = tested on: Mycobacterium tuberculosis; assay: Bactericidal activity against Mycobacterium tuberculosis H37Rv infected in Swiss mouse assessed as microbial killing by measuring colony forming units dosed orally daily for 28 days (reference value: 4800 CFU); assay type: functional
[24] = tested on: Mycobacterium tuberculosis; assay: Antimycobacterial activity against Mycobacterium tuberculosis H37Rv infected in Swiss mouse assessed as lung bacterial colony forming units at 150 mg/kg, po dosed daily for 28 days measured up to day 40 (reference value: 31 10^7 CFU); assay type: functional

Structure (SMILES)	MIC [1] [µg/mL]	IC50 [2] [µg/mL]	selectivity ratio [3]	other results
CN(C)CCOc1ccc(C(c2cccc(Cl)c2)c2cccs2)cc1 (stereo not drawn)	4.65 (≈ 12.5 µM)	10.8 (≈ 29 µM)	< 10	
COc1ccc(C(c2ccc(OCCN(C(C)C)C(C)C)cc2)c2cccs2)cc1 (stereo not drawn)	1.33 (≈ 3.14 µM)	100 (≈ 236 µM)	> 10	CFU [4]: 1200; bioavailability [5]: 45%; inhibition [6]: Active; MIC [7]: 3.12 µM (≈ 1.32 µg/mL); inhibition (INH) [8]: 100%; inhibition in vivo at 100 mg/kg [9]: 75%; Activity [10]: 2.2 ×10⁷ CFU; Activity [11]: Active; inhibition (INH) [12]: 81%; fold change (FC) [13]: 15; MRT [14]: 18 h; inhibition (percent reduction in intracellular colony forming units) [15]: >90%; inhibition (INH) [16]: 96%; survival at 100 mg/kg [17]: 42%; half-life [18]: 9 h; CFU [19]: 0; MST [20]: 7 days; fraction unbound [21]: 0.4
Clc1ccc(C(c2ccc(OCCN3CCCCC3)cc2)c2cccs2)cc1 (stereo not drawn)	0.78 (≈ 1.89 µM)	100 (≈ 243 µM)	> 10	inhibition (percent reduction in intracellular colony forming units) [15]: >90%; Activity [17]: inactive
CC(C)N(CCOc1ccc(C(c2cccc(Cl)c2)c2cccs2)cc1)C(C)C (stereo not drawn)	1.34 (≈ 3.13 µM)	22 (≈ 51.4 µM)	> 10	
Fc1ccccc1C(c1ccc(OCCN2CCCC2)cc1)c1cccs1 (stereo not drawn)	19.1 (≈ 50.1 µM)			
CCN(CC)CCOc1ccc(C(c2cccc(F)c2)c2cccs2)cc1 (stereo not drawn)	2.4 (≈ 6.26 µM)	5.8 (≈ 15.1 µM)	< 10	
CC(C)N(CCOc1ccc(C(c2ccc(Cl)cc2)c2cccs2)cc1)C(C)C (stereo not drawn)	1.56 (≈ 3.64 µM)	100 (≈ 234 µM)	> 10	inhibition (INH) [12]: 88%; inhibition (percent reduction in intracellular colony forming units) [15]: >90%; inhibition (INH) [16]: 94%; Activity [17]: Active
COc1ccccc1C(c1ccc(OCCN2CCCCCC2)cc1)c1cccs1 (stereo not drawn)	2.64 (≈ 6.26 µM)	12.7 (≈ 30.1 µM)	< 10	
CN(C)CCOc1ccc(C(c2cccs2)c2ccccc2F)cc1 (stereo not drawn)	17.8 (≈ 50.1 µM)			
CN(C)CCOc1ccc(C(c2cccc(F)c2)c2cccs2)cc1 (stereo not drawn)	17.8 (≈ 50.1 µM)			
COc1ccccc1C(c1ccc(OCCN2CCCCC2)cc1)c1cccs1 (stereo not drawn)	1.28 (≈ 3.14 µM)	9.2 (≈ 22.6 µM)	< 10	
Clc1cccc(C(c2ccc(OCCN3CCCC3)cc2)c2cccs2)c1 (stereo not drawn)	2.49 (≈ 6.26 µM)	8.6 (≈ 21.6 µM)	< 10	
CC[C@@H](CO)NCCN[C@@H](CC)CO [ETHAMBUTOL]				Activity [22]: 1.27 ×10⁷ CFU
CCN(CC)CCOc1ccc(C(c2ccccc2)c2cccs2)cc1 (stereo not drawn)	12.5 (≈ 34.1 µM)			
Fc1ccccc1C(c1ccc(OCCN2CCCCC2)cc1)c1cccs1 (stereo not drawn)	1.24 (≈ 3.13 µM)	3.9 (≈ 9.86 µM)	< 10	
Clc1cccc(C(c2ccc(OCCN3CCCCC3)cc2)c2cccs2)c1 (stereo not drawn)	1.29 (≈ 3.13 µM)	8.7 (≈ 21.1 µM)	< 10	
COc1ccccc1C(c1ccc(OCCN(C)C)cc1)c1cccs1 (stereo not drawn)	9.19 (≈ 25 µM)			
c1ccc(C(c2ccc(OCCN3CCCCCC3)cc2)c2cccs2)cc1 (stereo not drawn)	3.1 (≈ 7.92 µM)	13 (≈ 33.2 µM)	< 10	

Structure (SMILES)	MIC [1] [µg/mL]	IC50 [2] [µg/mL]	selectivity ratio [3]	other results
CSc1ccccc1C(c1ccc(OCCN(C)C)cc1)c1cccs1 (stereo not drawn)	12.5 (≈ 32.6 µM)			
c1ccc(C(c2ccc(OCCN3CCCCC3)cc2)c2cccs2)cc1 (stereo not drawn)	6.23 (≈ 16.5 µM)			
NNC(=O)c1ccncc1 [ISONIAZID]				inhibition [6]: Active; inhibition (INH) [12]: 84%; inhibition [15]: Active; inhibition (INH) [16]: 93%
COc1ccccc1C(c1ccc(OCCN(C(C)C)C(C)C)cc1)c1cccs1 (stereo not drawn)	25 (≈ 59 µM)			
Clc1cccc(C(c2ccc(OCCN3CCOCC3)cc2)c2cccs2)c1 (stereo not drawn)	5.18 (≈ 12.5 µM)	23.4 (≈ 56.5 µM)	< 10	
CCN(CC)CCOc1ccc(C(c2cccs2)c2ccccc2SC)cc1 (stereo not drawn)	25 (≈ 60.7 µM)			
CO[C@H]1/C=C/O[C@@]2(C)Oc3c(C)c(O)c4c(O)c(c(/C=N/N5CCN(C)CC5)c(O)c4c3C2=O)NC(=O)/C(C)=C\C=C\[C@H](C)[C@H](O)[C@@H](C)[C@@H](O)[C@@H](C)[C@H](OC(C)=O)[C@@H]1C [RIFAMPIN]				CFU [23]: 2000; inhibition [15]: Active
Fc1ccccc1C(c1ccc(OCCN2CCOCC2)cc1)c1cccs1 (stereo not drawn)	19.9 (≈ 50.1 µM)			
NC(=O)c1cnccn1 [PYRAZINAMIDE]				Activity [24]: 1.9 ×10⁷ CFU; inhibition [15]: Active
CC(C)N(CCOc1ccc(C(c2cccs2)c2ccccc2F)cc1)C(C)C (stereo not drawn)	10.3 (≈ 25 µM)			
CCN(CC)CCOc1ccc(C(c2cccs2)c2ccccc2F)cc1 (stereo not drawn)	4.8 (≈ 12.5 µM)			
Fc1cccc(C(c2ccc(OCCN3CCCCC3)cc2)c2cccs2)c1 (stereo not drawn)	19.8 (≈ 50.1 µM)			
CCN(CC)CCOc1ccc(C(c2cccc(Cl)c2)c2cccs2)cc1 (stereo not drawn)	1.25 (≈ 3.13 µM)	10.1 (≈ 25.3 µM)	< 10	
COc1ccccc1C(c1ccc(OCCN2CCOCC2)cc1)c1cccs1 (stereo not drawn)	10.2 (≈ 25 µM)			
CCN(CC)CCOc1ccc(C(c2cccs2)c2ccccc2OC)cc1 (stereo not drawn)	25 (≈ 63.2 µM)			
CSc1ccc(C(c2ccc(OCCN(C(C)C)C(C)C)cc2)c2cccs2)cc1 (stereo not drawn)	1.57 (≈ 3.57 µM)	100 (≈ 227 µM)	> 10	inhibition [6]: Active; inhibition (percent reduction in intracellular colony forming units) [15]: >90%; Activity [17]: Active
c1ccc(C(c2ccc(OCCN3CCOCC3)cc2)c2cccs2)cc1 (stereo not drawn)	25 (≈ 65.8 µM)			
COc1ccccc1C(c1ccc(OCCN2CCCC2)cc1)c1cccs1 (stereo not drawn)	25 (≈ 63.5 µM)			

Source: ChEMBL document CHEMBL3414533, “Thiophene containing trisubstituted methanes [TRSMs] as identified lead against Mycobacterium tuberculosis” (Eur J Med Chem, 2015)
